From patent publication US12485147B2, “Method for producing cell mass including pituitary tissue, and cell mass thereof” (SUMITOMO CHEMICAL COMPANY, LIMITED, priority 2017, dated 2025)

Assays:
Assay type in all cases: cell-based
[1] = tested on: Human iPS cells (HC-6 #10 strain); assay: Cell mass from human iPS cells using BMP signal transduction pathway inhibiting substance (K02288) after addition of BMP4; bright field observation and immunostaining; conditions: K02288 300 nM added on day 3, 6 or 10; day 28
Experimental: Human iPS cells (HC-6 #10 strain, obtained from RIKEN) were cultured under feeder-free conditions according to the method described in Scientific Reports, 4, 3594 (2014). As the feeder-free medium, StemFit medium was used and, as the feeder-free scaffold, Laminin 511-E8 was used.
(§1) Specific maintenance culturing operation was performed in the same manner as in Example 1.
The thus-prepared subconfluent human iPS cells were washed with PBS, subjected to an enzyme treatment using Accumax, a serum-free medium for differentiation induction was added, and the cells were scraped from the surface of the culture dish by using a cell scraper and dispersed into single cells by pipetting. Thereafter, the aforementioned human ES cells dispersed into single cells were suspended in 100 μl of a serum-free medium at 9×10^3 cells per well of a non-cell-adhesive 96-well culture plate (PrimeSurface 96V-bottom plate, manufactured by SUMITOMO BAKELITE), and cultured in suspension under the conditions of 37° C., 5% CO2. […]

[2] = tested on: Human ES cells (KhES-1 strain); assay: Addition conditions of Sonic hedgehog signal transduction pathway activating substance (SAG) in production of cell mass containing pituitary tissue; bright field observation; conditions: day 28
Experimental: (§2) Human ES cells (KhES-1 strain, obtained from Kyoto University) were cultured under feeder-free conditions according to the method described in Scientific Reports, 4, 3594 (2014). As the feeder-free medium, StemFit medium was used and, as the feeder-free scaffold, Laminin 511-E8 was used.
as §1
(§3) Thereafter, suspension culturing in a 96 well plate was started under conditions similar to those in Example 1.
A serum-free medium not containing Y27632 and containing IWP-2, SB-431542, BMP4, and SAG was added at 100 μl per well on day 2 from the start of suspension culturing. BMP4 was added at 3 nM to the medium so that the final concentration in the well would be 1.5 nM. SAG was added at a final concentration of 100, 300, 500, 700 nM, 1, 2, 5 μM as a Sonic hedgehog signal transduction pathway activating substance. The condition without addition of a Sonic hedgehog signal transduction pathway activating substance during the suspension culturing period was taken as the control (-SAG condition, FIG. 5A).
A half amount of the medium was changed with a serum-free medium not containing Y27632 or BMP4, and containing IWP-2, SB-431542, each concentration of SAG on days 6, 10, 13, 17, 21, 24 from the start of suspension culturing. […]

[3] = tested on: Human ES cells (KhES-1 strain); assay: Effect of compound treatment before differentiation induction in production of cell mass containing pituitary tissue; bright field observation; conditions: day 28
Experimental: Human ES cells (KhES-1 strain) were cultured under feeder-free conditions according to the method described in Scientific Reports, 4, 3594 (2014). As the feeder-free medium, StemFit medium was used and, as the feeder-free scaffold, Laminin 511-E8 was used. Specific maintenance culturing operation was performed in the same manner as in Example 1. As a pre-treatment for differentiation induction of the cultured cells, cells under 4 conditions were maintenance cultured under conditions in which, condition in which nothing is simultaneously added with medium change with […] medium (Control), conditions in which 300 nM SAG alone is added (+300 nM SAG), conditions in which 5 μM SB-431542 alone is added (+5 μM SB-431542), and conditions in which SAG and SB431542 are simultaneously added (+SAG/SB) at 6 days after seeding. The next day of the above-mentioned treatment, human ES cells under 4 conditions that reached subconfluence were each subjected to differentiation induction by suspension culturing into a cell mass containing pituitary tissue according to the method described in Example 1. Bright field observation was performed under an inverted microscope on day 28 from the start of suspension culturing (FIGS. 6A-D).

[4] = tested on: Human ES cells (KhES-1 strain); assay: Addition concentration of BMP4 in production of cell mass containing pituitary tissue; bright field observation; conditions: 0.5 nM, 1.5 nM or 5 nM BMP4 added once on day 2; day 28
Experimental: as §2, §1, §3
A serum-free medium not containing Y27632 and containing IWP-2, SB-431542, BMP4, and SAG was added at 100 μl per well on day 2 from the start of suspension culturing. In this case, the amount of BMP4 to be added was under 4 conditions of 0.5 nM, 1.5 nM, 5 nM and no addition control. BMP4 was added at twice the concentration set for the medium so that the final concentration set for the well could be achieved. SAG was added at 4 μM to the medium so that the final concentration in the well would be 2 μM.
A half amount of the medium was changed with a serum-free medium not containing Y27632 or BMP4 and containing IWP-2, SB-431542 and SAG on days 6, 10, 13, 17, 21 and 24 from the start of suspension culturing.
Bright field observation was performed under an inverted microscope on day 28 from the start of suspension culturing (FIGS. 8A-D).

[5] = tested on: Human ES cells (KhES-1 strain); assay: Timing of addition of BMP4 in production of cell mass from human ES cells; bright field observation; conditions: for structure of cell mass (bright field): observed day 10
Experimental: as §2, §1, §3
The condition without addition of a BMP signal transduction pathway activating substance during the suspension culturing period was taken as the control (-BMP4 condition, FIG. 3A). Thereafter, in the condition with the addition of a BMP signal transduction pathway activating substance on days 1, 2 or 3 from the start of suspension culturing (Day1-3+BMP4 condition, FIGS. 3B-D), a serum-free medium not containing Y27632 and containing IWP-2, SB-431542, BMP4 was added at 100 μl per well. BMP4 was added at 3 nM to the medium so that the final concentration in the well would be 1.5 nM. […] On day 10 from the start of suspension culturing, bright field observation was performed using an inverted microscope (manufactured by KEYENCE CORPORATION, BIOREVO) (FIGS. 3A-D).

## COc1cc(-c2cc(-c3cccc(O)c3)cnc2N)cc(OC)c1OC [K02288, 3-[6-amino-5-(3,4,5-trimethoxyphenyl)-3-pyridinyl]-phenol]
[1]
  cell mass formation (bright field): a cell mass in which nonneural epithelial tissue surrounds neural tissue of the center part was formed

## CNC1CCC(N(Cc2cccc(-c3ccncc3)c2)C(=O)c2sc3ccccc3c2Cl)CC1 (stereo not shown) [SAG]
[2]; SAG 100 nM, 300 nM, 500 nM, 700 nM, 1 μM or 2 μM compared with 5 μM
  size of cell mass and formation of pituitary tissue on the surface: the size of the cell mass was larger and formation of pituitary tissue on the surface of cell mass was fine
[2]; SAG 100, 300, 500, 700 nM, 1, 2, 5 μM added on day 2, compared with no SAG
  structure of cell mass (bright field): cell masses with the nonneural epithelial tissue invaginated like Rathke's pouch on the surface and containing neuroepithelium-like tissue and mesenchymal cells in the inside
[3]; pre-treatment with 300 nM SAG alone vs no addition
  size of cell mass: cell mass became large
[3]; pre-treatment with 300 nM SAG alone
  presence of mesenchymal cell: the presence of a mesenchymal cell could also be confirmed

B1: BMP4: BMP protein; BMP signal transduction pathway activating substance (protein, UniProt P12644 293-408, looked up)
Bone morphogenetic protein 4: SPKHHSQRARKKNKNCRRHSLYVDFSDVGWNDWIVAPPGYQAFYCHGDCPFPLADHLNSTNHAIVQTLVNSVNSSIPKACCVPTELSAISMLYLDEYDKVVLKNYQEMVVEGCGCR
[4]
  nonneural epithelial structure on surface of cell mass: a nonneural epithelial structure was formed on the surface of the cell mass
[5]; BMP4 1.5 nM
  effective timing of addition from start of suspension culturing for formation of cell mass coated with nonneural epithelial tissue: ≤ 72 h
[5]; BMP4 1.5 nM added on day 1 or day 2
  structure of cell mass (bright field): cell masses containing neural tissue and nonneural epithelial tissue and having a two-layer structure in which a center part with a neuroepithelium-like structure is covered with a nonneural epithelium-like layer were formed
[5]; BMP4 1.5 nM added on day 3 (and day 6)
  structure of cell mass (bright field): outer nonneural epithelium-like tissue was not formed
[5]; BMP4 added on day 2 compared with day 1, day 10
  size of embryoid body: larger than the embryoid body obtained under the condition with the addition of BMP4 on day 1
